Measured values: patent US20100298141A1, “SUBSTITUTED PYRIDINE N-OXIDE HERBICIDES” (E. I. DU PONT DE NEMOURS AND COMPANY, priority 2007, published 2010)

Experiments:
Assay in all cases: Test A pre-/postemergence greenhouse test
[1] = test system: barnyardgrass; format: in vivo, Echinochloa crus-galli; conditions: for Plant response rating, Barnyardgrass: 0 to 100 scale where 0 is no effect and 100 is complete control; for Barnyardgrass plant response rating: 0 to 100 scale
Source text: (§1) Seeds of barnyardgrass (Echinochloa crus-galli), crabgrass (Digitaria sanguinalis), giant foxtail (Setaria faberi), morningglory (Ipomoea spp.), redroot pigweed (Amaranthus retroflexus), velvetleaf (Abutilon theophrasti), wheat (Triticum aestivum), and corn (Zea mays) were planted into a blend of loam soil and sand and treated preemergence with a directed soil spray using test compounds formulated in a non-phytotoxic solvent mixture which included a surfactant. At the same time these species were also treated with postemergence applications of test compounds formulated in the same manner. Plants ranged in height from two to ten cm and were in the one- to two-leaf stage for the postemergence treatment. Treated plants and untreated controls were maintained in a greenhouse for approximately ten days, after which time all treated plants were compared to untreated controls and visually evaluated for injury. […] A dash (-) response means no test results.

[2] = test system: crabgrass; format: in vivo, Digitaria sanguinalis; conditions: for Plant response rating, Crabgrass, Large: 0 to 100 scale where 0 is no effect and 100 is complete control; for Crabgrass, Large plant response rating: 0 to 100 scale
Source text: as §1

[3] = test system: giant foxtail; format: in vivo, Setaria faberi; conditions: for Plant response rating, Foxtail, Giant: 0 to 100 scale where 0 is no effect and 100 is complete control; for Foxtail, Giant plant response rating: 0 to 100 scale
Source text: as §1

[4] = test system: morningglory; format: in vivo, Ipomoea spp.; conditions: for Plant response rating, Morningglory: 0 to 100 scale where 0 is no effect and 100 is complete control; for Morningglory plant response rating: 0 to 100 scale
Source text: as §1

[5] = test system: redroot pigweed; format: in vivo, Amaranthus retroflexus; conditions: for Plant response rating, Pigweed: 0 to 100 scale where 0 is no effect and 100 is complete control; for Pigweed plant response rating: 0 to 100 scale
Source text: as §1

[6] = test system: velvetleaf; format: in vivo, Abutilon theophrasti; conditions: for Plant response rating, Velvetleaf: 0 to 100 scale where 0 is no effect and 100 is complete control; for Velvetleaf plant response rating: 0 to 100 scale
Source text: as §1

[7] = test system: wheat; format: in vivo, Triticum aestivum; conditions: for Plant response rating, Wheat: 0 to 100 scale where 0 is no effect and 100 is complete control; for Wheat plant response rating: 0 to 100 scale
Source text: as §1

[8] = test system: corn; format: in vivo, Zea mays; conditions: for Plant response rating, Corn: 0 to 100 scale where 0 is no effect and 100 is complete control; for Corn plant response rating: 0 to 100 scale
Source text: as §1

[9] = Postemergence, 500 g ai/ha, 0 is no effect, 100 is complete control
[10] = Preemergence, 125 g ai/ha, 0 no effect, 100 complete control
[11] = Preemergence, 500 g ai/ha, 0 no effect, 100 complete control

SMILES	Plant response rating, Barnyardgrass ([1]; Postemergence, 125 g ai/ha)	Barnyardgrass plant response rating [1, 9]	Barnyardgrass plant response rating [1, 10]	Barnyardgrass plant response rating [1, 11]	Plant response rating, Crabgrass, Large ([2]; Postemergence, 125 g ai/ha)	Crabgrass, Large plant response rating [2, 9]	Crabgrass, Large plant response rating [2, 10]	Crabgrass, Large plant response rating [2, 11]	Plant response rating, Foxtail, Giant ([3]; Postemergence, 125 g ai/ha)	Foxtail, Giant plant response rating [3, 9]	Foxtail, Giant plant response rating [3, 10]	Foxtail, Giant plant response rating [3, 11]	Plant response rating, Morningglory ([4]; Postemergence, 125 g ai/ha)	Morningglory plant response rating [4, 9]	Morningglory plant response rating [4, 10]	Morningglory plant response rating [4, 11]	Plant response rating, Pigweed ([5]; Postemergence, 125 g ai/ha)	Pigweed plant response rating [5, 9]	Pigweed plant response rating [5, 10]	Pigweed plant response rating [5, 11]	also measured
CCCc1cc[n+]([O-])c(S(=O)(=O)Cc2c(C(F)(F)F)nn(C)c2OC(F)F)c1 [Compound 117]	40	80	20	90	50	80	80	90	70	80	90	90	40	90	80	90	60	80	100	100	Plant response rating, Velvetleaf ([6]; Postemergence, 125 g ai/ha): 50; Velvetleaf plant response rating [6, 9]: 60; Velvetleaf plant response rating [6, 10]: 10; Velvetleaf plant response rating [6, 11]: 90; Plant response rating, Wheat ([7]; Postemergence, 125 g ai/ha): 40; Wheat plant response rating [7, 9]: 50; Wheat plant response rating [7, 10]: 30; Wheat plant response rating [7, 11]: 70; Plant response rating, Corn ([8]; Postemergence, 125 g ai/ha): 0; Corn plant response rating [8, 9]: 40; Corn plant response rating [8, 10]: 20; Corn plant response rating [8, 11]: 60
Cn1nc(C(F)(F)F)c(CS(=O)(=O)c2cc(C3CC3)cc[n+]2[O-])c1OC(F)F [Compound 118]	50	70	70	100	40	80	90	100	40	80	90	100	20	60	40	100	50	80	100	100	Plant response rating, Velvetleaf ([6]; Postemergence, 125 g ai/ha): 40; Velvetleaf plant response rating [6, 9]: 60; Velvetleaf plant response rating [6, 10]: 20; Velvetleaf plant response rating [6, 11]: 90; Plant response rating, Wheat ([7]; Postemergence, 125 g ai/ha): 40; Wheat plant response rating [7, 9]: 60; Wheat plant response rating [7, 10]: 40; Wheat plant response rating [7, 11]: 60; Plant response rating, Corn ([8]; Postemergence, 125 g ai/ha): 0; Corn plant response rating [8, 9]: 0; Corn plant response rating [8, 10]: 0; Corn plant response rating [8, 11]: 20
Cn1nc(C(F)(F)F)c(CS(=O)(=O)c2cc(C3CC3)cc[n+]2[O-])c1OCC(F)(F)F [Compound 119]	40	60	50	90	40	60	80	90	30	70	90	100	10	20	30	80	30	60	100	100	Plant response rating, Velvetleaf ([6]; Postemergence, 125 g ai/ha): 10; Velvetleaf plant response rating [6, 9]: 50; Velvetleaf plant response rating [6, 10]: 20; Velvetleaf plant response rating [6, 11]: 70; Plant response rating, Wheat ([7]; Postemergence, 125 g ai/ha): 30; Wheat plant response rating [7, 9]: 50; Wheat plant response rating [7, 10]: 0; Wheat plant response rating [7, 11]: 30; Plant response rating, Corn ([8]; Postemergence, 125 g ai/ha): 0; Corn plant response rating [8, 9]: 0; Corn plant response rating [8, 10]: 0; Corn plant response rating [8, 11]: 0
Cn1nc(C(F)(F)F)c(C[S+]([O-])c2cc(C3CC3)cc[n+]2[O-])c1OC(F)F (centres unmarked) [Compound 120]	60	70	80	100	50	80	90	90	80	90	100	100	50	80	80	90	60	80	100	100	Plant response rating, Velvetleaf ([6]; Postemergence, 125 g ai/ha): 60; Velvetleaf plant response rating [6, 9]: 80; Velvetleaf plant response rating [6, 10]: 60; Velvetleaf plant response rating [6, 11]: 80; Plant response rating, Wheat ([7]; Postemergence, 125 g ai/ha): 40; Wheat plant response rating [7, 9]: 50; Wheat plant response rating [7, 10]: 50; Wheat plant response rating [7, 11]: 100; Plant response rating, Corn ([8]; Postemergence, 125 g ai/ha): 30; Corn plant response rating [8, 9]: 70; Corn plant response rating [8, 10]: 80; Corn plant response rating [8, 11]: 90
